Assay results published in ChEMBL document CHEMBL4507258 (2021).

Columns and labels:
[1] = target: Ribosomal protein S6 kinase alpha-2 (Homo sapiens) (UniProt Q15349); details: Compound concentration 1000.0 nM
[2] = target: Serine/threonine-protein kinase 25 (Homo sapiens) (UniProt O00506); details: Compound concentration 1000.0 nM
[3] = target: Serine/threonine-protein kinase 38-like (Homo sapiens) (UniProt Q9Y2H1); details: Compound concentration 1000.0 nM
[4] = target: Uncharacterized serine/threonine-protein kinase SBK3 (Homo sapiens) (UniProt P0C264); details: Compound concentration 1000.0 nM
[5] = target: Cyclin-dependent kinase 7 (Homo sapiens) (UniProt P50613); details: Compound concentration 1000.0 nM
[6] = target: MAP/microtubule affinity-regulating kinase 4 (Homo sapiens) (UniProt Q96L34); details: Compound concentration 1000.0 nM
[7] = target: AP2-associated protein kinase 1 (Homo sapiens) (UniProt Q2M2I8); details: Compound concentration 1000.0 nM
[8] = target: Delta-type opioid receptor (Homo sapiens) (UniProt P41143); details: Compound concentration 10.0 uM
[9] = target: Calcium/calmodulin-dependent protein kinase type 1G (Homo sapiens) (UniProt Q96NX5); details: Compound concentration 1000.0 nM
[10] = target: Histamine H3 receptor (Homo sapiens) (UniProt Q9Y5N1); details: Compound concentration 10.0 uM
[11] = target: Cyclin-dependent kinase 3 (Homo sapiens) (UniProt Q00526); details: Compound concentration 1000.0 nM
[12] = target: Serine/threonine-protein kinase TBK1 (Homo sapiens) (UniProt Q9UHD2); details: Compound concentration 1000.0 nM
[13] = test system: Phosphatidylinositol 4,5-bisphosphate 3-kinase catalytic subunit alpha isoform (Homo sapiens), P42336 [M1043I]; details: Compound concentration 1000.0 nM
[14] = target: T1, 5-hydroxytryptamine receptor 3A (Homo sapiens) (UniProt P46098); details: Compound concentration 10.0 uM
T1 sequence (whole entry): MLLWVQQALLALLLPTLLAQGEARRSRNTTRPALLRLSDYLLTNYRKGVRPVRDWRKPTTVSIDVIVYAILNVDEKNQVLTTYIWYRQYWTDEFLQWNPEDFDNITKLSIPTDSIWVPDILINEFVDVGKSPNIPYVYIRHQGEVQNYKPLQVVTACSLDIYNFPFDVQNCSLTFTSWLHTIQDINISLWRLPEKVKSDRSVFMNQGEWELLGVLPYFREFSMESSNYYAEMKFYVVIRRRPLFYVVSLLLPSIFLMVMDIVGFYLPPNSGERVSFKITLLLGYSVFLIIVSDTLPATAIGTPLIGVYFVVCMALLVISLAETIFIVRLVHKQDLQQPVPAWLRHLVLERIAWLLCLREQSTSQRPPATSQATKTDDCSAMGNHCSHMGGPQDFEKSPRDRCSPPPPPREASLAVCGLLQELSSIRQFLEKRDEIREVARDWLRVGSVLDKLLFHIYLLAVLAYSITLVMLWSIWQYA

[15] = target: Platelet-derived growth factor receptor beta (Homo sapiens) (UniProt P09619); details: Compound concentration 1000.0 nM
[16] = target: Serine/threonine-protein kinase D2 (Homo sapiens) (UniProt Q9BZL6); details: Compound concentration 1000.0 nM
[17] = target: Dual specificity protein kinase TTK (Homo sapiens) (UniProt P33981); details: Compound concentration 1000.0 nM
[18] = target: Tyrosine-protein kinase ITK/TSK (Homo sapiens) (UniProt Q08881); details: Compound concentration 1000.0 nM
[19] = test system: Receptor-type tyrosine-protein kinase FLT3 (Homo sapiens), P36888 [R834Q]; details: Compound concentration 1000.0 nM
[20] = target: Serine/threonine-protein kinase tousled-like 1 (Homo sapiens) (UniProt Q9UKI8); details: Compound concentration 1000.0 nM
[21] = target: Ribosomal protein S6 kinase alpha-5 (Homo sapiens) (UniProt O75582); details: Compound concentration 1000.0 nM
[22] = target: Dual specificity protein kinase CLK3 (Homo sapiens) (UniProt P49761); details: Compound concentration 1000.0 nM
[23] = test system: Tyrosine-protein kinase ABL1 (Homo sapiens), P00519 [E255K]; details: Compound concentration 1000.0 nM
[24] = target: Mitogen-activated protein kinase 15 (Homo sapiens) (UniProt Q8TD08); details: Compound concentration 1000.0 nM
[25] = target: Serine/threonine-protein kinase 32C (Homo sapiens) (UniProt Q86UX6); details: Compound concentration 1000.0 nM
[26] = target: D(1A) dopamine receptor (Homo sapiens) (UniProt P21728); details: Compound concentration 10.0 uM
[27] = test system: Leucine-rich repeat serine/threonine-protein kinase 2 (Homo sapiens), Q5S007 [G2019S]; details: Compound concentration 1000.0 nM
[28] = target: Tyrosine-protein kinase Fgr (Homo sapiens) (UniProt P09769); details: Compound concentration 1000.0 nM
[29] = target: STE20/SPS1-related proline-alanine-rich protein kinase (Homo sapiens) (UniProt Q9UEW8); details: Compound concentration 1000.0 nM
[30] = target: Cyclin-dependent kinase 11B (Homo sapiens) (UniProt P21127); details: Compound concentration 1000.0 nM
[31] = target: Tyrosine-protein kinase Lck (Homo sapiens) (UniProt P06239); details: Compound concentration 1000.0 nM
[32] = target: Serine/threonine-protein kinase LATS1 (Homo sapiens) (UniProt O95835); details: Compound concentration 1000.0 nM
[33] = target: High affinity nerve growth factor receptor (Homo sapiens) (UniProt P04629); details: Compound concentration 1000.0 nM
[34] = target: Serine/threonine-protein kinase D3 (Homo sapiens) (UniProt O94806); details: Compound concentration 1000.0 nM
[35] = target: Ephrin type-A receptor 5 (Homo sapiens) (UniProt P54756); details: Compound concentration 1000.0 nM
[36] = target: Mitogen-activated protein kinase kinase kinase 5 (Homo sapiens) (UniProt Q99683); details: Compound concentration 1000.0 nM
[37] = target: Sigma intracellular receptor 2 (Homo sapiens) (UniProt Q5BJF2); details: Compound concentration 10.0 uM
[38] = target: Vascular endothelial growth factor receptor 2 (Homo sapiens) (UniProt P35968); details: Compound concentration 1000.0 nM
[39] = target: Myosin light chain kinase, smooth muscle (Homo sapiens) (UniProt Q15746); details: Compound concentration 1000.0 nM

Serine/threonine-protein kinase 38-like (Homo sapiens), sequence (Q9Y2H1 2-464 limits assumed): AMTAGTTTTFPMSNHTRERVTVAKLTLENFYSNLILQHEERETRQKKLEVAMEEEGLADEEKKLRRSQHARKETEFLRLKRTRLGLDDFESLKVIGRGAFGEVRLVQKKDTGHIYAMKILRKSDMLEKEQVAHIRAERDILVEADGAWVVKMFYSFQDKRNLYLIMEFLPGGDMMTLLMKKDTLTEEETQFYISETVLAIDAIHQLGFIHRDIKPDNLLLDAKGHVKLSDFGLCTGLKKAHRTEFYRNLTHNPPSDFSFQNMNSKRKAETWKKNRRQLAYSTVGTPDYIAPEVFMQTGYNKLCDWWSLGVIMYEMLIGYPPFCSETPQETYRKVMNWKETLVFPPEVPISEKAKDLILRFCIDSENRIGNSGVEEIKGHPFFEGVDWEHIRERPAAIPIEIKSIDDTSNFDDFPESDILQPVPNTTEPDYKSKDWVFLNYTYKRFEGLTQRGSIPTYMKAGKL
Ribosomal protein S6 kinase alpha-2 (Homo sapiens), sequence (Q15349 whole entry): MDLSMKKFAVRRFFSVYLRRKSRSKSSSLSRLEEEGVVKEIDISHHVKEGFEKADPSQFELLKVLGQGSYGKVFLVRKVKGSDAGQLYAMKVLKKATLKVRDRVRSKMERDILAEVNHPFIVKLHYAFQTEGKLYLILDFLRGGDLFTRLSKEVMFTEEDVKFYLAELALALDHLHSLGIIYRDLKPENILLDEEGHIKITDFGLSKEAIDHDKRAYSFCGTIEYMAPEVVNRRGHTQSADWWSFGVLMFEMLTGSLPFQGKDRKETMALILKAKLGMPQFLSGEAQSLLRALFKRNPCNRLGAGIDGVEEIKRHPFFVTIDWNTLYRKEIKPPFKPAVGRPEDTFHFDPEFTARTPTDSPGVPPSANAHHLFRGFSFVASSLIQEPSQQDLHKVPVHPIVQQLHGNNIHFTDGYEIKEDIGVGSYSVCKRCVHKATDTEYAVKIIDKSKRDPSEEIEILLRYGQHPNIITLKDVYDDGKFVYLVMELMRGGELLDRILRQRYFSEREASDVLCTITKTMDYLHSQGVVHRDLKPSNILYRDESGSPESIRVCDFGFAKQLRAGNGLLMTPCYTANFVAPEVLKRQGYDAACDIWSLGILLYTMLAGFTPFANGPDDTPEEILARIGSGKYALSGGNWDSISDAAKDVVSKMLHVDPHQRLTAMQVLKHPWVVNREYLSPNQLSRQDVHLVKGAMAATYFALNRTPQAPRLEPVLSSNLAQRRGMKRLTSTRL
Ephrin type-A receptor 5 (Homo sapiens), sequence (P54756 whole entry): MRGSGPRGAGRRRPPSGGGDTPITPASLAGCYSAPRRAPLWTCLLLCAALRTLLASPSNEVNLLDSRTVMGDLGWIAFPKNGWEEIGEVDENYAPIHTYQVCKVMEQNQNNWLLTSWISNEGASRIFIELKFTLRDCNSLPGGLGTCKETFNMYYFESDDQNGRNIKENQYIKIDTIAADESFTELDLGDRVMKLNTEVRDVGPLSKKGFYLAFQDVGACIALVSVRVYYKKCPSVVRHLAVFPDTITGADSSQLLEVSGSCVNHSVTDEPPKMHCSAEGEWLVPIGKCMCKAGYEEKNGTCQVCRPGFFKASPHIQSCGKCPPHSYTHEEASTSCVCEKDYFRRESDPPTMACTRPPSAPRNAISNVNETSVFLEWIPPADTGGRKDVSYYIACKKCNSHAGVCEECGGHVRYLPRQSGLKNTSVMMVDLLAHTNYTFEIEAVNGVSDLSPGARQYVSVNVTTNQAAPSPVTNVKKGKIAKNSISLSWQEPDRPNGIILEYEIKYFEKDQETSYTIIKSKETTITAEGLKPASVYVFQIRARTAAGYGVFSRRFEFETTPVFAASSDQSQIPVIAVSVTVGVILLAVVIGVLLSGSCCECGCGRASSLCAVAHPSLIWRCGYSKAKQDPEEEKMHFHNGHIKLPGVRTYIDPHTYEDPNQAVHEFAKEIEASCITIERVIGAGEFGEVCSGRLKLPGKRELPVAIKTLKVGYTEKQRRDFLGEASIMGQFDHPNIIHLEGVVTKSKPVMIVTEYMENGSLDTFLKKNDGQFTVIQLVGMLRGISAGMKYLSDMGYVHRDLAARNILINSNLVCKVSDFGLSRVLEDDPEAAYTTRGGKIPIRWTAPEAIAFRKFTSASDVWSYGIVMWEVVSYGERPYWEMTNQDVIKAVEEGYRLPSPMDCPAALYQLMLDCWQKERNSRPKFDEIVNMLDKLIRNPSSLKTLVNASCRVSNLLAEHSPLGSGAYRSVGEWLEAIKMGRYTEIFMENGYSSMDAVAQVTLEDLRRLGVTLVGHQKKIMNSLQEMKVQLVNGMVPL
Cyclin-dependent kinase 3 (Homo sapiens), sequence (Q00526 whole entry, looked up): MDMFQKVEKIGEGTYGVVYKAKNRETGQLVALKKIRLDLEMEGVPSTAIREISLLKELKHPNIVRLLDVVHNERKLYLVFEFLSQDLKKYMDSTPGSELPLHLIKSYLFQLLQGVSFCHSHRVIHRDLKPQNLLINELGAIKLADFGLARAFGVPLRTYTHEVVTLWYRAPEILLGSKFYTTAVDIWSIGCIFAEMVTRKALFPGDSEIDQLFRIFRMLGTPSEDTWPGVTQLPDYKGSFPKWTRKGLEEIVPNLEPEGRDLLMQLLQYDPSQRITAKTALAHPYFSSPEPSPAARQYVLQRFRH
Tyrosine-protein kinase ABL1 (Homo sapiens), P00519 [E255K], sequence (P00519 whole entry E255K): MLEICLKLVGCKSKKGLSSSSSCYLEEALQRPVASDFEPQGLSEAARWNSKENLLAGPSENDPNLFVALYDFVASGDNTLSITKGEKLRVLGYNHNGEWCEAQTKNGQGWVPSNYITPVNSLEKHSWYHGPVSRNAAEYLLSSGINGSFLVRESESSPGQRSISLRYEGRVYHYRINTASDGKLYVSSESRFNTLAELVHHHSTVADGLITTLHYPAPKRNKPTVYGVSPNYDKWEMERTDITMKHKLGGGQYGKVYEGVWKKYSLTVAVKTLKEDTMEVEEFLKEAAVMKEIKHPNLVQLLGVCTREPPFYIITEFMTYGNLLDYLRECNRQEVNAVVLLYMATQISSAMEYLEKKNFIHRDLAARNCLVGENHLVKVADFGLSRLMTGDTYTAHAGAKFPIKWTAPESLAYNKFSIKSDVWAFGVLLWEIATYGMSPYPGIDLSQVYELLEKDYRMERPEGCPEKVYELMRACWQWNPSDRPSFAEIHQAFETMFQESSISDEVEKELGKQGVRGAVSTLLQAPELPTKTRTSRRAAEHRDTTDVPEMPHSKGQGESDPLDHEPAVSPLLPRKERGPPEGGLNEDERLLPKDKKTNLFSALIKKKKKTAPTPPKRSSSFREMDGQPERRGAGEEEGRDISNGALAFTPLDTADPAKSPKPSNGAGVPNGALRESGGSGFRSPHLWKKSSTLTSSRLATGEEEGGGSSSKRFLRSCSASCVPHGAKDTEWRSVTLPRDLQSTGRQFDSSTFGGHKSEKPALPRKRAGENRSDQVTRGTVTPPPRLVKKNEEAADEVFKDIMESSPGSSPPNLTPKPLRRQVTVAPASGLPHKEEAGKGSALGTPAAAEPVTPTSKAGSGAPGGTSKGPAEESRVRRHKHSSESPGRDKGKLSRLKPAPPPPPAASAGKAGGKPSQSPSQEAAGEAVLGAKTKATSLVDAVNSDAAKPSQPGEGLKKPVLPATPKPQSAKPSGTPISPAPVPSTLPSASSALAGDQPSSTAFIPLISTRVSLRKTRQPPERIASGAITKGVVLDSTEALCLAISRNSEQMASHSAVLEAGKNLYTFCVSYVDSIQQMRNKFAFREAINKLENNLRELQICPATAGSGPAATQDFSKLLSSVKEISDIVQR
Phosphatidylinositol 4,5-bisphosphate 3-kinase catalytic subunit alpha isoform (Homo sapiens), P42336 [M1043I], sequence (P42336 whole entry M1043I, canonical isoform): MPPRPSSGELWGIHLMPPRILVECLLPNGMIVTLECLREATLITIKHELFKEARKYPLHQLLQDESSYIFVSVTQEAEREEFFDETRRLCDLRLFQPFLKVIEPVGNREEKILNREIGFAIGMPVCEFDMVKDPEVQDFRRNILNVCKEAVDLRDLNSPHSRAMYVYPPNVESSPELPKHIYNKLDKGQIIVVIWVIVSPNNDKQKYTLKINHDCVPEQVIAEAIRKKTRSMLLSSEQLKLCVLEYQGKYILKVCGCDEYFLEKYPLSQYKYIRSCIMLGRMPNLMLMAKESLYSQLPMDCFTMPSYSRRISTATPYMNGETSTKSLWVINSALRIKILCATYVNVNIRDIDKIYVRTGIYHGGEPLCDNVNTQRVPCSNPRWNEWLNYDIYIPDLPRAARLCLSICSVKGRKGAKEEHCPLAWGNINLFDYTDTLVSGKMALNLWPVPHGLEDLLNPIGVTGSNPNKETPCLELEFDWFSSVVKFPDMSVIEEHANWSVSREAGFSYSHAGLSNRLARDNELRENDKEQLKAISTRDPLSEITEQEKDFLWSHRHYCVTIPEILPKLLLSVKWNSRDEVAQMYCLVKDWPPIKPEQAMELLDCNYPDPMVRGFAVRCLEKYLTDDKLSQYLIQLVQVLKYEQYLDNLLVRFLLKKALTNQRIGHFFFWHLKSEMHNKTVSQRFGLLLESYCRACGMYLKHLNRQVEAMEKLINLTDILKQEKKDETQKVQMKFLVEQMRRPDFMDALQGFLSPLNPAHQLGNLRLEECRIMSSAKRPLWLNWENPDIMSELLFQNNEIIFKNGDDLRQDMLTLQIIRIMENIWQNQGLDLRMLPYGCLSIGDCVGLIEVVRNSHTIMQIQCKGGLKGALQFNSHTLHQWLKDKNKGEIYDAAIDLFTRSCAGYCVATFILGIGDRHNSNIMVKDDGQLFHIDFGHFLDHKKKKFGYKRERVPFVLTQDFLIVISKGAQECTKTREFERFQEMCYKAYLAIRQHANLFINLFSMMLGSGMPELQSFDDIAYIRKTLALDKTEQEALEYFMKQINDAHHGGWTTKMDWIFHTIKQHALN
Sigma intracellular receptor 2 (Homo sapiens), sequence (Q5BJF2 whole entry): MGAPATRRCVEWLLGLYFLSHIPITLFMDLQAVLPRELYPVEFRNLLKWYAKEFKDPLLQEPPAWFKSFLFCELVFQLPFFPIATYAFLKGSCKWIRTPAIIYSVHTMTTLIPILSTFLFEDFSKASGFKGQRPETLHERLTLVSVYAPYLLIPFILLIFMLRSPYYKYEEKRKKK

CCCCN(CCCC)C(=O)CN1C[C@H](c2cc(OC)c3c(c2)OCO3)[C@@H](C(=O)O)[C@@H]1CC(C)(C)CCC [ABT-546]
inactive: residual activity [1] 100% | residual activity [2] 100% | residual activity [3] 100% | residual activity [4] 100% | residual activity [5] 100% | residual activity [6] 98.3% | residual activity [7] 100% | inhibition [8] 25.6% | residual activity [9] 100% | inhibition [10] -3.57% | residual activity [11] 100% | residual activity [12] 100% | residual activity [13] 83.7% | inhibition [14] 14.7% | residual activity [15] 100% | residual activity [16] 100% | residual activity [17] 100% | residual activity [18] 100% | residual activity [19] 64.2% | residual activity [20] 100% | residual activity [21] 100% | residual activity [22] 100% | residual activity [23] 83.7% | residual activity [24] 100% | residual activity [25] 100% | inhibition [26] 4.66% | residual activity [27] 100% | residual activity [28] 100% | residual activity [29] 100% | residual activity [30] 86.4% | residual activity [31] 100% | residual activity [32] 100% | residual activity [33] 61.2% | residual activity [34] 90.2% | residual activity [35] 100% | residual activity [36] 100% | inhibition [37] 48.5% | residual activity [38] 88.7% | residual activity [39] 100%

CCCCN(CCCC)C(=O)CN1C[C@@H](c2cc(OC)c3c(c2)OCO3)[C@H](C(=O)O)[C@H]1CC(C)(C)CCC [A-545]
inactive: residual activity [1] 84.7% | residual activity [2] 88.1% | residual activity [3] 92.4% | residual activity [4] 100% | residual activity [5] 89.5% | residual activity [6] 93% | residual activity [7] 100% | inhibition [8] 41.1% | residual activity [9] 100% | inhibition [10] 17% | residual activity [11] 88.1% | residual activity [12] 100% | residual activity [13] 100% | inhibition [14] 2.23% | residual activity [15] 99% | residual activity [16] 90.6% | residual activity [17] 100% | residual activity [18] 100% | residual activity [19] 80.6% | residual activity [20] 82.4% | residual activity [21] 74.4% | residual activity [22] 100% | residual activity [23] 93.5% | residual activity [24] 100% | residual activity [25] 100% | inhibition [26] 16.6% | residual activity [27] 100% | residual activity [28] 92.4% | residual activity [29] 100% | residual activity [30] 100% | residual activity [31] 99.1% | residual activity [32] 75.2% | residual activity [33] 86.7% | residual activity [34] 100% | residual activity [35] 81.9% | residual activity [36] 100% | inhibition [37] 41.3% | residual activity [38] 88.1% | residual activity [39] 84.4%
